Measured values published in patent US20020119939A1, “Stable aqueous deoxyfructosazine solution” (priority 2000, published 2002).

Test: study of the stability of aqueous deoxyfructosazine solutions (HPLC)
Format: physicochemical
Details: 1 mg/ml solution
Procedure: The study of the stability of aqueous deoxyfructosazine solutions was carried out according to the following protocol:
A deoxyfructosazine solution (1 mg/ml) is prepared using an aqueous 0.05M phosphoric acid solution. Samples of the solution are adjusted to pH 2, 3, 4, 5, 6, 7, 8 and 9 by addition of sodium hydroxide. The solutions thus obtained are stored in glass bottles protected from the light, at 4° C. (control solution), 25° C., 45° C. and 60° C. After 2, 7 and 15 days, the samples are diluted 5-fold with a 20 mM, pH 7 phosphate buffer and the stability is examined by high pressure liquid chromatography (HPLC).

## OC[C@@H](O)[C@@H](O)[C@H](O)c1cnc(C[C@H](O)[C@H](O)CO)cn1 [deoxyfructosazine, 2-((1R, 2S, 3R)1,2,3,4-tetrahydroxybutyl)-5-((2′S, 3′R)2′, 3′, 4′-trihydroxy-butylpyrazine)]
pH 2, stored 15 days at 45° C.
  % of decomposition product calculated relative to the total area of the peaks, Product A: 1.52%
pH 2, stored 15 days at 60° C.
  % of decomposition product calculated relative to the total area of the peaks, Product A: 6.94%
  % of decomposition product calculated relative to the total area of the peaks, Product B: 0.02%
pH 3, stored 15 days at 45° C.
  % of decomposition product calculated relative to the total area of the peaks, Product A: 0.16%
pH 3, stored 15 days at 60° C.
  % of decomposition product calculated relative to the total area of the peaks, Product A: 0.87%
  % of decomposition product calculated relative to the total area of the peaks, Product B: 0.03%
pH 4, stored 15 days at 60° C.
  % of decomposition product calculated relative to the total area of the peaks, Product A: 0.07%
  % of decomposition product calculated relative to the total area of the peaks, Product B: 0.05%
pH 5, stored 15 days at 45° C.
  % of decomposition product calculated relative to the total area of the peaks, Product B: 0.03%
pH 5, stored 15 days at 60° C.
  % of decomposition product calculated relative to the total area of the peaks, Product B: 0.24%
pH 6, stored 15 days at 45° C.
  % of decomposition product calculated relative to the total area of the peaks, Product B: 0.21%
pH 6, stored 15 days at 60° C.
  % of decomposition product calculated relative to the total area of the peaks, Product B: 0.71%
pH 7, stored 15 days at 45° C.
  % of decomposition product calculated relative to the total area of the peaks, Product B: 0.69%
pH 7, stored 15 days at 60° C.
  % of decomposition product calculated relative to the total area of the peaks, Product B: 13.9%
pH 8, stored 15 days at 45° C.
  % of decomposition product calculated relative to the total area of the peaks, Product B: 0.95%
pH 8, stored 15 days at 60° C.
  % of decomposition product calculated relative to the total area of the peaks, Product B: 37.9%
pH 9, stored 15 days at 45° C.
  % of decomposition product calculated relative to the total area of the peaks, Product B: 1.92%
pH 9, stored 15 days at 60° C.
  % of decomposition product calculated relative to the total area of the peaks, Product B: 37.7%
